The structures appear in SMILES notation.

These results are taken from PMC3409651 (Journal of agricultural and food chemistry, 2012).

Data set [1] can be described thus: Chemical stability of the tested compounds in potassium phosphate buffer. The class given is physicochemical. Particulars: 50 mM potassium phosphate buffer (pH 7.4) at 37°C with 0.1% vitamin C.
For the next data set, the system named is Sult. The experiment in a line: Sult activity measurements. Conditions: male, FVB, mouse, liver S9 fraction, pH 7.4. The class given is in vitro ADME, mouse.
The next data set concerns Sult and Ugt. The experiment in a line: Sult-Ugt co-reaction system. Conditions: male, FVB, mouse, liver S9 fraction. Type of data set: in vitro ADME.
The next data set relates to Ugt. Description: Ugt activity measurements. Conditions: male, FVB, mouse, liver S9 fraction, pH 7.4.
Data set [2] deals with Sult in FVB mouse liver S9 fraction. The experiment in a line: Sult activity measurements. The class given is in vitro ADME.
The test system of data set [3] is Ugt in FVB mouse liver S9 fraction. Particulars: male, 10 µM, pH 7.4.
Data set [4] has as its system SULTs in human liver and duodenum S9 fractions. Conditions: cited from earlier work.
The mark [5] stands for this setting: 10 µM substrate, Sult single reaction, FVB mice liver S9 fraction, n=3.

With `O=c1c(O)c(-c2ccc(O)cc2)oc2ccccc12` [3,4’-diHF, 3,4’-dihydroxyflavone], in data set [1], the “time stable in buffer (chemical stability)” value (“time stable in buffer” below) was 30 to 90 min.
By half-life is commonly meant how long it takes for the measured level to halve. Lower therefore signals rapid decline. For the molecule `O=c1cc(-c2ccccc2)oc2cc(O)c(O)cc12` [6,7-diHF, 6,7-dihydroxyflavone], the half-life at 10 µM with Sult turned out to be 244 ± 36.8 min; with Sult and Ugt, 21.2 ± 2.03 min; in the data set on Ugt, 26.8 ± 1.32 min.
`O=c1cc(-c2ccccc2)oc2cccc(O)c12` [5-HF, 5-hydroxyflavone]: the sulfation rate in data set [2] (male, FVB, mouse, 10 µM, pH 7.4) is given as 0.0524 ± 0.0019 nmol per min per mg of protein.
For `O=c1cc(-c2ccccc2O)oc2ccccc12` [2’-HF, 2’-hydroxyflavone], the sulfation rate in data set [2] (setting [5]) is 0.0719 ± 0.0030 nmol per min per mg of protein. Moreover, the “time stable in buffer” value in data set [1] is listed as 30 to 90 min.
For `O=c1cc(-c2cccc(O)c2)oc2ccccc12` [3’-HF, 3’-hydroxyflavone], the sulfation rate in data set [2] (setting [5]) is listed as 0.0312 ± 0.0095 nmol per min per mg of protein. Further, in data set [1], the “time stable in buffer” value lay within 30 to 90 min.
In the case of `O=c1cc(-c2ccccc2)oc2cc(O)cc(O)c12` [5,7-diHF, 5,7-dihydroxyflavone], in data set [2] (male, FVB, mouse, 5 µM, pH 7.4), the “formation rate of 7-O-sulfate” value is reported as 0.0387 ± 0.0025 nmol per min per mg of protein. Also, in data set [3], the “glucuronidation rate, 5-O-G” value is given as 0.00 ± 0.00 nmol per min per mg of protein and the “glucuronidation rate, 7-O-G” value is on record as 1.0763 ± 0.0399 nmol per min per mg of protein.
With `O=c1c(O)c(-c2ccccc2)oc2ccccc12` [3-HF, 3-hydroxyflavone], the sulfation rate in data set [2] (setting [5]) is on record as 0.00 ± 0.00 nmol per min per mg of protein. Also, the “sulfation by FVB mice liver S9 fraction (in words)” value in data set [2] (5, 10 and 40 µM substrate, Sult single reaction) was “not sulfated”. The “time stable in buffer” value in data set [1] was in the range of 30 to 90 min.
Regarding `O=c1cc(-c2ccccc2)oc2ccc(O)cc12` [6-HF, 6-hydroxyflavone], the sulfation rate in data set [2] (setting [5]) is 0.0211 ± 0.0002 nmol per min per mg of protein. Besides, the “time stable in buffer” value in data set [1] is listed as 30 to 90 min.
As for `O=c1cc(-c2ccccc2)oc2cc(O)ccc12` [7-HF, 7-hydroxyflavone], the sulfation rate in data set [2] (setting [5]) is given as 0.0998 ± 0.0061 nmol per min per mg of protein. In data set [1], the “time stable in buffer” value lay within 30 to 90 min. For the same molecule, the “sulfation by SULTs (in words)” value in data set [4] is given as “sulfated”.
With `O=c1cc(-c2ccc(O)cc2)oc2ccccc12` [4’-HF, 4’-hydroxyflavone], the sulfation rate in data set [2] (setting [5]) is recorded as 0.0793 ± 0.0031 nmol per min per mg of protein. For the same molecule, the “time stable in buffer” value in data set [1] lay within 30 to 90 min.
